What was measured:
[1] = Plasma protein binding by equilibrium dialysis, human plasma; format: in vitro ADME; details: pH 7.4
Experimental: (§1) Methods and Procedure: This study was performed in agreement with the previously described procedures to assure data integrity and adherence to GLP standards. Plasma protein binding and blood tissue binding of test items (0.5 μM) was determined using biological samples from male Sprague Dawley (SD) rats and humans. […] Dexamethasone was used as a control for lung tissue binding. Various biological samples were spiked with test compounds according to the methods that follow.
(§2) Preparation of plasma or blood samples: An appropriate amount of test compound was dissolved in DMSO to yield a 10 mM solution. Further dilutions, to obtain 50 μM working solutions (WS), were then prepared using 50% acetonitrile in Milli-Q water. These 100×WS were used to spike plasma or blood to obtain a final concentration of 0.5 μM. From this initial spiking solution, control samples (n=3), referred to as T=0, were immediately extracted and used to calculate the recovery of the test item.
(§3) An equilibrium dialysis method was performed to determine protein binding in the various biological samples described herein. Materials were prepared and methods were in accordance with the following procedures. […]
(§4) Dialysis buffer was prepared by dissolving Na2HPO4 8.69 g, KH2PO4 1.90 g, and NaCl 4.11 g in 1 L of MilliQ water, and adjusting the pH to 7.4 with H3PO4. […] In order to control the integrity of the membrane after the dialysis process, the presence of protein was assessed in the buffer compartment. […]
(§5) Samples were analyzed in a LC-MS/MS system using an analytical method to monitor the compound to internal standard peak area ratios as representative of the compound concentrations. Alternatively, samples were analyzed by RapidFire.
(§6) Protein binding in plasma, blood, brain, and lung tissue samples were determined with the following formula: Afu=Buffer/x, wherein “x” may be plasma, blood, brain, or lung, and “Afu” is the apparent fraction unbound, and the other variables refer to the analyte/internal standard ratio determined in their specific compartment (buffer, plasma, blood, brain homogenate, and lung homogenate); […]

[2] = Plasma protein binding by equilibrium dialysis, rat plasma; format: in vitro ADME, Sprague Dawley (SD) rats; details: male, Sprague Dawley, pH 7.4
Experimental: as §1, §2, §3, §4, §5, §6

Row | SMILES | fraction unbound at 5 h, 0.5 µM [1] | fraction unbound at 5 h, 0.5 µM [2]
1 | CNC(C)Cc1ccc2c(c1)OCO2 (stereo not drawn) [MDMA, reference compound] | > 0.5 | > 0.5
2 | Clc1ccc(C23CNC(CO2)C3)cc1Cl (stereo not drawn) [522A, 1-(3,4-dichlorophenyl)-2-oxa-5-azabicyclo[2.2.1]heptane] | 0.021 | 0.12
3 | Clc1ccc([C@@]23CN[C@@H](CO2)C3)cc1Cl (single isomer, unassigned) [518A] | 0.0143 | 0.106

— patent US12595269B2, “Morpholine-like monoamine releasers” (Solvonis Therapeutics Ireland Holdings Limited, priority 2022, dated 2026)
